In this experiment the target is hOGG1 (Homo sapiens, UniProt O15527). Briefly: Biochemical fluorescence assay to measure enzymatic activity of hOGG1 (OGG1/APEX IC50). Details: Protein His-hOGG1 (12-323) was prepared; His (N); host or cells: E. coli. The conditions noted are these: pH 7.5, RT 40 min. How it is done:
Biological Example 1: Biochemical Assay to Measure Enzymatic Activity of hOGG1 (OGG1/APEX IC50)
The reported fluorescence-based assay (Donley et al ACS Chem Biol 2015; 10 (10), 2334-2343) was modified to include hAPE1/APEX1 protein. The oligonucleotide substrate with 8-oxo-dG lesion at X was prepared (LGC Biosearch, Petaluma, CA):
Protein His-hOGG1 (12-323) was prepared by Chempartner Corporation via E. coliexpression and purification by Ni-NTA and S200 column to afford 95% purity by SDS-PAGE and SEC-HPLC analysis and hAPE1/APEX1 was purchased (SinoBiological). The assay was run in 384-well plates following the general procedure: (1) compound dilution; (2) addition of hOGG1/APEX1 to compound wells; (3) addition of DNA substrate to compound wells; (4) read Ex520/Em600 (TAMRA) fluorescence signal after 40 minutes; (5) calculate % inhibition/compound concentration; (6) calculate dose-response curve and IC50 value.
• (1) 20 mM of compound solution was prepared in DMSO; • (2) Compounds were diluted to 10 mM in DMSO in ECHO Source plate (Labcyte PP-0200), by mixing […] DMSO; • (3) 4× dilution of compounds, for 10 points, by mixing […] DMSO; and • (4) Dispensed 150 nL compounds to assay plate (Corning 3573) in column 3-22. Dispensed 150 nL DMSO to Min and Max control wells in column 1-2 and column 23-24.
• (1) Assay buffer was prepared (20 mM Tris pH 7.5, 100 mM KCl, 0.1% BSA, 0.01% Tween). • (2) […] buffer was added to Min control wells (Column 1-2). • (3) Enzyme was diluted to 2× with buffer (2 nM OGG1+4 nM APEX1). Dispensed […] (except Min control wells). Shake at 500 rpm at RT for 20 min. • (4) DNA substrate diluted to 2× with buffer (12 nM). Dispensed […]. Final concentration: 1 nM OGG1+2 nM APEX+6 nM dsDNA. Shake at RT for 40 min. • (5) Ex520/Em600 (TAMRA) was read.
• (1) Calculated respective mean of Max and Min control wells. • (2) Converted data to percentage inhibition.
Inhibition (%)=(Max mean−value)/(Max mean−Min mean)×100% • (3) Calculated sigmoidal curve (3-parameter) and IC50 (using GraphPad Prism software).

[1] abbreviates: 1 nM OGG1+2 nM APEX+6 nM dsDNA (8-oxo-dG substrate), read-out: OGG1/APEX IC50.

Molecules are shown by their SMILES. Read-outs that look alike come from different tables or passages of the source. A value given as a limit tells only on which side of the number the result lay.

Chain of hOGG1 (O15527 12-323): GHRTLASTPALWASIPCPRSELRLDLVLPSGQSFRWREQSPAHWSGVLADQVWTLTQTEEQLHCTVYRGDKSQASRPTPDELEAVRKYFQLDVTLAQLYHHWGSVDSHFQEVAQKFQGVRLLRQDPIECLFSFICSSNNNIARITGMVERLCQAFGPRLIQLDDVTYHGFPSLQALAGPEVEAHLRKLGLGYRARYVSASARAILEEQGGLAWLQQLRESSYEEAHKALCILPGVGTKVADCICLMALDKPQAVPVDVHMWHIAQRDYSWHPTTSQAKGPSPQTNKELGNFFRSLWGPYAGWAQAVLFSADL

As for `Cc1cnc(NC(=O)[C@H]2CC[C@@H](N3Cc4c(C)cccc4C3=O)CC2)s1` [Example 235, (1s,4s)-4-(4-Methyl-1-oxoisoindolin-2-yl)-N-(5-methylthiazol-2-yl)cyclohexanecarboxamide], the IC50 under setting [1] was over 10000 nM.
Same read-out and setting: under `Cc1cc(NCCN(C)C)cc2c1CN([C@H]1CC[C@@H](C(=O)Nc3ccc(Cl)c(F)c3)CC1)C2=O` [Example 264, (1s,4s)-N-(4-Chloro-3-fluorophenyl)-4-(6-(2-(dimethylamino)ethylamino)-4-methyl-1-oxoisoindolin-2-yl)cyclohexanecarboxamide] stands under 100 nM.
Same read-out and setting: under `COc1cc(NC(=O)C2C[C@@H]3[C@H](C2)[C@H]3N2Cc3c(Br)cccc3C2=O)ccc1C` (single isomer, unassigned) [Example 247] stands over 10000 nM.
Still for that read-out and setting: under `Cc1cccc2c1CN([C@H]1CC[C@@H](C(=O)Nc3nc4ccccc4[nH]3)CC1)C2=O` [Example 274, (1s,4s)-N-(1H-benzo[d]imidazol-2-yl)-4-(4-methyl-1-oxoisoindolin-2-yl)cyclohexanecarboxamide] stands 100 to 1000 nM; under `COc1cc(NC(=O)[C@H]2CC[C@@H](N3Cc4c(Cl)cccc4NC3=O)CC2)ccc1C` [Example 68, (1s,4s)-4-(5-chloro-2-oxo-1,2-dihydroquinazolin-3(4H)-yl)-N-(3-methoxy-4-methylphenyl)cyclohexanecarboxamide], 100 to 1000 nM; under `COc1cc(NC(=O)[C@H]2CC[C@@H](N3Cc4c(C)cccc4OC3=O)CC2)ccc1C` [Example 115, (1s,4s)-N-(3-methoxy-4-methylphenyl)-4-(5-methyl-2-oxo-2H-benzo[e][1,3]oxazin-3(4H)-yl)cyclohexane-1-carboxamide], 100 to 1000 nM.
As for `COc1cc(NC(=O)[C@H]2CC[C@@H](N3Cc4c(C)cc(C(=O)NCCN(C)C)cc4NC3=O)CC2)ccc1C` [Example 84, N-(2-(dimethylamino)ethyl)-3-((1s,4s)-4-(3-methoxy-4-methylphenylcarbamoyl)cyclohexyl)-5-methyl-2-oxo-1,2,3,4-tetrahydroquinazoline-7-carboxamide], the IC50 under setting [1] was under 100 nM.
Same read-out and setting: with `COc1cc(NC(=O)[C@H]2CC[C@@H](N3Cc4c(cccc4C(C)C)C3=O)CC2)ccc1C` [Example 158, (1s,4s)-4-(4-Isopropyl-1-oxoisoindolin-2-yl)-N-(3-methoxy-4-methylphenyl)cyclohexanecarboxamide] the figure was over 10000 nM; with `COc1cc(NC(=O)[C@H]2CC[C@@H](n3[nH]c4c(Br)cccc4c3=O)CC2)ccc1C` (single isomer, unassigned) [Example 160, (1s,4s)-4-(7-Bromo-3-oxo-1H-indazol-2(3H)-yl)-N-(3-methoxy-4-methylphenyl)cyclohexanecarboxamide], 100 to 1000 nM; with `COc1cc(NC(=O)[C@H]2CC[C@@H](N3Cc4c(ccc(N5CCC5)c4C)NC3=O)CC2)ccc1C` [Example 42, (1s,4s)-4-(6-(Azetidin-1-yl)-5-methyl-2-oxo-1,2-dihydroquinazolin-3(4H)-yl)-N-(3-methoxy-4-methylphenyl)cyclohexanecarboxamide], 100 to 1000 nM.
Same read-out and setting: with `Cc1cccc2c1CN([C@H]1CC[C@@H](C(=O)Nc3cc4ccccc4[nH]3)CC1)C2=O` [Example 273, (1s,4s)-N-(1H-indol-2-yl)-4-(4-methyl-1-oxoisoindolin-2-yl)cyclohexanecarboxamide] the figure was 100 to 1000 nM.
Turning to `COc1cc(NC(=O)[C@@H]2[C@@H]3C[C@@H](N4Cc5c(Br)cccc5C4=O)C[C@@H]32)ccc1C` (single isomer, unassigned) [Example 269], under setting [1], the IC50 lay in the range of 1000 to 10000 nM.
Still for that read-out and setting: with `COc1cc(NC(=O)[C@H]2CC[C@@H](N3Cc4c(Br)cc(NC(=O)Cc5c[nH]cn5)cc4C3=O)CC2)ccc1C` [Example 201, (1s,4s)-4-(6-(2-(1H-Imidazol-4-yl)acetamido)-4-bromo-1-oxoisoindolin-2-yl)-N-(3-methoxy-4-methylphenyl)cyclohexanecarboxamide] the figure was 100 to 1000 nM; with `COc1cc(NC(=O)[C@H]2CC[C@@H](N3Cc4c(C)cc(CN5CC[C@H](O)C5)cc4NC3=O)CC2)ccc1C` (stereo in doubt) [Example 98, (1R,4s)-4-(7-(((S)-3-hydroxypyrrolidin-1-yl)methyl)-5-methyl-2-oxo-1,2-dihydroquinazolin-3(4H)-yl)-N-(3-methoxy-4-methylphenyl)cyclohexanecarboxamide], under 100 nM; with `COc1cc(NC(=O)[C@H]2CC[C@@H](N3Cc4c(C)cc(C5COC5)cc4NC3=O)CC2)ccc1C` [Example 33, (1s,4s)-N-(3-Methoxy-4-methylphenyl)-4-(5-methyl-7-(oxetan-3-yl)-2-oxo-1,2-dihydroquinazolin-3(4H)-yl)cyclohexanecarboxamide], under 100 nM.
The same measure, in the same setting: under `COc1ccc(NC(=O)[C@H]2CC[C@@H](N3Cc4c(C)cccc4C3=O)CC2)cc1C(F)(F)F` [Example 231, (1s,4s)-N-(4-Methoxy-3-(trifluoromethyl)phenyl)-4-(4-methyl-1-oxoisoindolin-2-yl)cyclohexanecarboxamide] stands 100 to 1000 nM; under `COCc1ccc(C)c2c1NC(=O)N([C@H]1CC[C@@H](C(=O)Nc3ccc(C)c(OC)c3)CC1)C2` [Example 1, (1s,4s)-N-(3-Methoxy-4-methylphenyl)-4-(8-(methoxymethyl)-5-methyl-2-oxo-1,2-dihydroquinazolin-3(4H)-yl)cyclohexanecarboxamide], 1000 to 10000 nM; under `COc1cc(NC(=O)[C@H]2CC[C@@H](N3Cc4c(C)ccc(OCCN(C)C)c4NC3=O)CC2)ccc1C` [Example 21, (1s,4s)-4-(8-(2-(Dimethylamino)ethoxy)-5-methyl-2-oxo-1,2-dihydroquinazolin-3(4H)-yl)-N-(3-methoxy-4-methylphenyl)cyclohexanecarboxamide], under 100 nM.
On the same count and under the same terms, under `COc1cc(NC(=O)[C@H]2CC[C@@H](N3Cc4c(C)cc(OCCN(C)C)cc4NC3=O)CC2)ccc1C` [Example 82, (1s,4s)-4-(7-(2-(dimethylamino)ethoxy)-5-methyl-2-oxo-1,2-dihydroquinazolin-3(4H)-yl)-N-(3-methoxy-4-methylphenyl)cyclohexanecarboxamide] stands under 100 nM.
Regarding `Cc1cccc2c1CN([C@H]1CC[C@@H](C(=O)Nc3ccn(C)c(=O)c3)CC1)C2=O` [Example 252, (1s,4s)-4-(4-Methyl-1-oxoisoindolin-2-yl)-N-(1-methyl-2-oxo-1,2-dihydropyridin-4-yl)cyclohexanecarboxamide], the IC50 under setting [1] is over 10000 nM.
In the case of `Cc1cccc2c1CN([C@H]1CC[C@@H](C(=O)Nc3ccc4cc[nH]c4c3)CC1)C(=O)N2` [Example 113, (1s,4s)-N-(1H-indol-6-yl)-4-(5-methyl-2-oxo-1,2-dihydroquinazolin-3(4H)-yl)cyclohexanecarboxamide], the IC50 under setting [1] was in the range of 100 to 1000 nM.
On the same count and under the same terms, under `COc1ccc(NC(=O)[C@H]2CC[C@@H](N3Cc4c(C)cccc4C3=O)CC2)cc1OC` [Example 219, (1s,4s)-N-(3,4-dimethoxyphenyl)-4-(4-methyl-1-oxoisoindolin-2-yl)cyclohexanecarboxamide] stands 100 to 1000 nM.
As to `COc1cc(NC(=O)[C@H]2CC[C@@H](N3Cc4c(C)cc(N)cc4C3=O)CC2)ccc1C` [Example 192, (1s,4s)-4-(6-Amino-4-methyl-1-oxoisoindolin-2-yl)-N-(3-methoxy-4-methylphenyl)cyclohexanecarboxamide], the IC50 (OGG1/APEX IC50, 1 nM OGG1+2 nM APEX+6 nM dsDNA (8-oxo-dG substrate)) is under 100 nM.
As to `Cc1cccc2c1CN([C@H]1CC[C@@H](C(=O)Nc3ccc(Cl)cc3)CC1)C2=O` [Example 216, (1s,4s)-N-(4-Chlorophenyl)-4-(4-methyl-1-oxoisoindolin-2-yl)cyclohexanecarboxamide], the IC50 under setting [1] is 100 to 1000 nM.
Still for that read-out and setting: under `COc1cc(NC(=O)[C@H]2CC[C@@H](N3Cc4c(Br)cc(NCCN5CCOCC5)cc4C3=O)CC2)ccc1C` [Example 203, (1s,4s)-4-(4-Bromo-6-(2-morpholinoethylamino)-1-oxoisoindolin-2-yl)-N-(3-methoxy-4-methylphenyl)cyclohexanecarboxamide] stands 100 to 1000 nM.

The values above are taken from US20260317356A1, “SMALL MOLECULE MODULATORS OF OGG1” (AZKARRA THERAPEUTICS, INC., priority 2023, published 2026).
